Key:
[1] = test system: rat model of gastroesophageal reflux disease; assay: Effect on esophagus lesion in rat model of gastroesophageal reflux disease; assay type: in vivo; conditions: 10 mg/kg oral in 0.5% CMC, 1 h before reflux induction; esophagus examined 6 h after operation; SD male rats
Text: In order to determine the therapeutic effect on acute/chronic gastroesophageal reflux disease by the inventive Lonicerae Flos fraction or the compound represented by Formula 1 or 2, the method for measuring the therapeutic effect on gastroesophageal reflux disease (Nakamura K et al; Jpn. J. Pharmacol., 32(3), 445-456, 1982: Okabe S, et al; Jpn. J. Pharmacol., 69(4), 317-323, 1995) was applied to the present experiments.
In order to determine the therapeutic effect of the inventive Lonicerae Flos extract, the inventive Lonicerae Flos fraction, or the compound represented by Formula 1 or 2 in a rat model of gastroesophageal reflux disease, Spraugue-Dawley(SD)-based male rats aged 7 weeks were fasted for 24 hours and supplied with water in a sufficient amount. The rats were weighed, and were orally administered with omeprazole (Sigma-Aldrich) as a control drug and with Lonicerae Flos extract/fraction as a test drug, which are suspended in a 0.5% CMC (Carboxymethyl cellulose) solution, one hour before induction of reflux. For reflux induction, the abdomen of the rat was opened, and a pylorus region between stomach and duodenum was ligated. Then, a stomach-esophagus sphincter between esophagus and stomach was injured by longitudinal incision of 1 cm so that gastric acid can be flowed backward due to abnormal relaxation of the sphincter. Also, a transition zone between forestomach and glandular portion was ligated by thread, and the abdomen was sutured by cotton thread. 6 hours after the completion of the operation, inhalation anesthesia was performed, and the esophagus was extracted. Then, the size of an esophagus lesion and the extent of esophagitis were observed. In Table 1, the esophagus lesion inhibition ratio (%) of a test group administered with the inventive test material, with respect to a control group, is noted.

[2] = test system: lipid peroxidation of esophagus tissue; assay: Lipid peroxide (malondialdehyde) of esophagus tissue in rat model of gastroesophageal reflux disease; assay type: in vivo; conditions: esophagus mucous membrane from Experimental Example 1 (10 mg/kg oral); malondialdehyde by TBA, 532 nm
Experimental: A test for finding out the inhibition of lipid peroxidation by the inventive Lonicerae Flos extract, the inventive Lonicerae Flos fraction, or a compound isolated from the fraction (3,5-di-O-caffeoylquinic acid or 4,5-di-O-caffeoylquinic acid) was carried out. the esophagus mucous membrane extracted in Experimental Example 1 was taken out, and added in 1 ml of tris-hydrochloric acid buffer solution (pH 7.0), followed by ultrasonic grinding. After centrifugation (600×g, 4° C.) for 5 minutes, 0.3 ml of supernatant was added with 0.9 ml of trichloroacetic acid (8%). Then, after centrifugation (10,000×g, 4° C.) for 5 minutes, 1 ml of supernatant was added with 0.25 ml of TBA(1%), and then with 2 ml of n-butanol. Then, after centrifugation (3,000×g , 4° C.) for 5 minutes, on 1 ml of butanol fraction, the absorbency was measured at 532 nm. As a reference material, malonaldehyde bis-dimethyl acetal was used. The result was expressed as nmol/mg protein, and protein quantitative analysis was carried out by Bradford assay.

[3] = test system: TNF-α; assay: TNF-alpha level in esophagus tissue (ELISA), anti-inflammatory effect; assay type: in vivo, rat; conditions: 10 mg/kg; for inflammation inhibition ratio: calculated from TNF-alpha of test, control and normal groups; for TNF-alpha: esophagus tissue of reflux rats, normal group 120.3, control group 325.2
Experimental: On the Lonicerae Flos extract, the Lonicerae Flos fraction, or a compound isolated from the fraction (3,5-di-O-caffeoylquinic acid or 4,5-di-O-caffeoylquinic acid), having a therapeutic effect in a rat model of gastroesophageal reflux disease, in order to measure an anti-inflammatory effect within esophagus tissue, a level of Tumor necrosis factor-alpha(TNF-α) playing an important role in inflammatory disease mechanism was measured within esophagus tissue of a rat (Nippon Rinsho, 68(5), 819-822, 2010). As a kit for this measurement, rat TNF-α ELISA kit (Cat No:88-7340, eBioscience) was used. Each of esophagus tissues of all test groups, obtained from <Experimental Example 1>was introduced into homogenizing buffer (10×)(pH 7.4: 1.15% KCl, 50 mM Tris-HCl, 1 mM EDTA), followed by grinding by a homogenizer. Then, after centrifugation at 3,000 rpm or more for 10 minutes, the homogenized tissue liquid (supernatant) was separated, and then stored in a deep freezer for the use in the experiment. After all antigen-antibody reactions were completed, the absorbency was measured by ELISA Reader (BIORAD) at 450 nm, and then the amount of TNF-α in esophagus tissue was expressed by using a reference curve of absorbency. The inflammation inhibition ratio (%) of a test material was calculated by the following equation. Also, the anti-inflammatory effect by the Lonicerae Flos extract in a rat model of gastroesophageal reflux disease is noted in Table 2.
Inflammation inhibition ratio (%)=1−((test group-normal group)/(control group-normal group))×100

[4] = test system: Hexosamine of esophagus mucous membrane; assay: Amount of hexosamine in esophagus tissue; assay type: in vivo, rat; conditions: esophagus tissue of reflux rats; for Hexosamine: 10 mg/kg, normal group 1101.3, control group 925.3; for content of hexosamine compared to that of a control group: doses as in Table 3
Experimental: (§1) On the Lonicerae Flos extract, the Lonicerae Flos fraction, or a compound isolated from the fraction (3,5-di-O-caffeoylquinic acid or 4,5-di-O-caffeoylquinic acid), having a therapeutic effect in a rat model of gastroesophageal reflux disease, the amounts of Hexosamine and Sialic acid constituting esophagus mucous membrane of esophagus tissue were measured.
Esophagus tissues of all test groups, obtained from <Experimental Example 1>, were immersed in ethanol, and then left in acetone for 2 days, and in ether for 1 day, followed by cleaning and drying. The test sample was weighed, added with 5 ml of 4N HCl solution, and hydrolyzed by being heated at 100° C. for 9 hours. Then, the resultant product was cooled at room temperature, and filtered. 0.5 ml of filtrate was added with 0.5 ml of 4N NaOH solution for neutralization, and then added with 1 ml of acetylacetone solution, followed by shaking. Then, the resultant product was heated at 100° C. for 20 minutes, and cooled, and then added with 5 ml of isoamylalcohol, followed by shaking for 2 minutes. After centrifugation at 3,000 rpm for 10 minutes, 2 ml of supernatant was collected. The supernatant was added with 0.5 ml of a color agent, and left for 15 minutes, and then its absorbency was measured at 530 nm. From a calibration curve obtained by using Glucosamine, the content of hexosamine was calculated.

[5] = test system: Sialic acid of esophagus mucous membrane; assay: Amount of sialic acid in esophagus tissue; assay type: in vivo, rat; conditions: esophagus tissue of reflux rats; for Sialic acid: 10 mg/kg, normal group 125.2, control group 95.2; for content of sialic acid compared to that of a control group: doses as in Table 3
Experimental: as §1
Esophagus tissues of all test groups, obtained from <Experimental Example 1>, were immersed in ethanol, and then left in acetone for 2 days, and in ether for 1 day, followed by cleaning and drying. The test sample was weighed, added with 5 ml of 0.1N H2SO4 solution, and hydrolyzed by being heated at 80° C. for 1 hour. Then, the resultant product was cooled at room temperature, and filtered. 0.2 ml of filtrate was mixed with 0.1 ml of 0.2M periodate solution, and left at room temperature for 20 minutes. Then, the resultant solution was mixed with 1 ml of 10% arsenite solution until a yellowish brown color disappeared. 3 ml of 0.6% TBA solution was added thereto, followed by mixing. The resultant product was covered with a cap, and heated at 100° C. for 15 minutes, cooled, and left in a cool bath for 5 minutes, followed by cen- trifugation at 3,000 rpm for 10 minutes. A supernatant was collected, and its absorbency was measured at 549nm. From a calibration curve obtained by using N-acetylneuraminic acid, the content of Sialic acid was calculated.

[6] = test system: SPF SD-based female/male rats; assay: Toxicity test of acute oral administration; assay type: in vivo; conditions: single oral dose 1.0 g/kg or 2.0 g/kg in 0.5% CMC; 5 female and 5 male SD rats; autopsy after 7 days; safe up to 2.0 g/kg
Experimental: By applying the Lonicerae Flos extract of Example 1, fractions of Examples 4 and 5, and 3,5-di-O-caffeoylquinic acid and 4,5-di-O-caffeoylquinic acid from Example 6, to SPF (specific pathogen free) SD-based female/male rats aged 6 weeks, an acute toxicity test was carried out.
Female 5 rats and male 5 rats of each test group were orally administered with the test materials from Examples in a dose of 1.0 g/kg or 2.0 g/kg. The test materials were suspended in 0.5% CMC (Carboxymethyl cellulose) solution before the administration. When the test materials were administered, mortality, clinical symptoms, and weight changes of animals were observed. 7 days after the administration, through autopsy, a hematologic examination and a blood chemical test were carried out. Then, with the naked eye, it was observed if there was abnormality in abdominal cavity organs and thoracic cage organs. […] Also, through weight measurement, a blood test, a blood chemical test, and autopsy results, an abnormal change was not observed.

Row | SMILES | esophagus lesion inhibition ratio with respect to control group [1] | lipid peroxidation inhibiting ratio [2] | inflammation inhibition ratio [3] | TNF-alpha [3] | Hexosamine [4] | content of hexosamine compared to that of a control group [4] | Sialic acid [5] | content of sialic acid compared to that of a control group [5] | acute oral toxicity (mortality, clinical symptoms, weight changes, blood tests, autopsy) [6]
1 | O=C(/C=C/c1ccc(O)c(O)c1)OC1CC(O)(C(=O)O)CC(OC(=O)/C=C/c2ccc(O)c(O)c2)C1O (centres unmarked) [3,5-di-CQA, 3,5-di-O-caffeoylquinic acid] | 90% | 49.1% | 87.8% | 145.3 pg/mg Tissue weight | 1445.2 μg/100 mg dry tissue | significantly increased | 155.3 μg/100 mg dry tissue | significantly increased | not showing toxicity
2 | O=C(/C=C/c1ccc(O)c(O)c1)O[C@H]1[C@H](O)C[C@](O)(C(=O)O)C[C@H]1OC(=O)/C=C/c1ccc(O)c(O)c1 [4,5-di-CQA, 4,5-di-O-caffeoylquinic acid] | 81% | 50.2% | 85.5% | 150.1 pg/mg Tissue weight | 1380.2 μg/100 mg dry tissue | significantly increased | 148.1 μg/100 mg dry tissue | significantly increased | –
3 | COc1ccc2[nH]c([S+]([O-])Cc3ncc(C)c(OC)c3C)nc2c1 (centres unmarked) [omeprazole, reference compound] | 83% | 53.9% | 80.5% | 160.2 pg/mg Tissue weight | 1176.3 μg/100 mg dry tissue | – | 132.2 μg/100 mg dry tissue | – | –

— US20130310454A1, “PHARMACEUTICAL COMPOSITION COMPRISING EXTRACT OF LONICERA JAPONICA FOR PREVENTION AND TREATMENT OF GASTROESOPHAGEAL REFLUX DISEASE” (priority 2010, published 2013)
